According to patent publication US20200170975A1 (Strongbridge Dublin Limited, priority 2018, published 2020):
Read-outs that look alike come from different tables or passages of the source.

Columns and labels:
BCRP = molecular target: T1, BCRP (Homo sapiens, UniProt Q9UNQ0); assay: BCRP inhibition: bidirectional transport of prazosin across MDCKII-BCRP and control MDCKII cells; conditions: for Recovery (%) A:B / Recovery (%) B:A / % control: 120 min
T1 sequence (Q9UNQ0 1-655): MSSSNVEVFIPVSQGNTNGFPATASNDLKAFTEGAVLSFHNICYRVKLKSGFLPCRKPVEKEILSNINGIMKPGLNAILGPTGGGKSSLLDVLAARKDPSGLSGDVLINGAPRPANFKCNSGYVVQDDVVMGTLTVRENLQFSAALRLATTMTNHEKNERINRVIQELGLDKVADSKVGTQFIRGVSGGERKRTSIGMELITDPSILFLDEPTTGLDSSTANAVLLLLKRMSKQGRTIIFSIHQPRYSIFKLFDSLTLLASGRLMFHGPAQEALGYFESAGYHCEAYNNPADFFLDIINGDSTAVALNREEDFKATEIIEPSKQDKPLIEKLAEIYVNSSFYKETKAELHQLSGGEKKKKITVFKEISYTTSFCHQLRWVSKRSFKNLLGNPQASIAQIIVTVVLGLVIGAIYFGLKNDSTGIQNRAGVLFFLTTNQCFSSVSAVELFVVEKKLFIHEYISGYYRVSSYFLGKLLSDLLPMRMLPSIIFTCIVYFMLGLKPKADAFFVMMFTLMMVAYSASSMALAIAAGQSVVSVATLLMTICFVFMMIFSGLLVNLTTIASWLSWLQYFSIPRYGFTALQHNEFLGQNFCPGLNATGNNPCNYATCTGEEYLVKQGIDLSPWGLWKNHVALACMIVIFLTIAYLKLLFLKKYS
Description: MDCKII P-gp, MDCKII BCRP and control MDCKII cells were purchased from the Netherlands Cancer Institute.

OCT1 = molecular target: T2, OCT1 (Homo sapiens, UniProt O15245); conditions: for Uptake, OCT1 (Average ± SD): OCT1 HEK293 cells; for Uptake, OCT1 (Average ± SD) / % control / Background corrected uptake rate / Uptake, Control (Average ± SD): [14C]-TEA bromide 5 μM; for Uptake, Control (Average ± SD): control HEK293 cells
T2 sequence (O15245 1-554): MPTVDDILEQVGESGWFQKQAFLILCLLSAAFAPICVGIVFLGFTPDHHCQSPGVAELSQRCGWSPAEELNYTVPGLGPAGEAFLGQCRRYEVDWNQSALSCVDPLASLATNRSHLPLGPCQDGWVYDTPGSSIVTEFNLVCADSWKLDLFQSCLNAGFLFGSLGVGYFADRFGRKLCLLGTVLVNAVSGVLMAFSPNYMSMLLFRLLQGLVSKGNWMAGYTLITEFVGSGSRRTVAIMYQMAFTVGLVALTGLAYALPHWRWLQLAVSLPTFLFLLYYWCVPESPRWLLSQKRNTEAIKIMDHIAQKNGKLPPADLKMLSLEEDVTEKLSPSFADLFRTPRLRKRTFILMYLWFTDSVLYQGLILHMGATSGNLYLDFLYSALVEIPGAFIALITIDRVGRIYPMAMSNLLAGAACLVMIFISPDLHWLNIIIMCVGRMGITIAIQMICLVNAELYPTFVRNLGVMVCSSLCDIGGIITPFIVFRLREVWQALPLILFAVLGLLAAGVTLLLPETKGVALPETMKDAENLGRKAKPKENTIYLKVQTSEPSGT

OAT4 = molecular target: T3, OAT4 (Homo sapiens, UniProt Q9NSA0); assay: OAT4 inhibition: accumulation of [3H]-estrone-3-sulfate in S2 cells; type: in vitro ADME
T3 construct: expressed in transfected cells; host or cells: S2 cells
T3 sequence (Q9NSA0 1-550): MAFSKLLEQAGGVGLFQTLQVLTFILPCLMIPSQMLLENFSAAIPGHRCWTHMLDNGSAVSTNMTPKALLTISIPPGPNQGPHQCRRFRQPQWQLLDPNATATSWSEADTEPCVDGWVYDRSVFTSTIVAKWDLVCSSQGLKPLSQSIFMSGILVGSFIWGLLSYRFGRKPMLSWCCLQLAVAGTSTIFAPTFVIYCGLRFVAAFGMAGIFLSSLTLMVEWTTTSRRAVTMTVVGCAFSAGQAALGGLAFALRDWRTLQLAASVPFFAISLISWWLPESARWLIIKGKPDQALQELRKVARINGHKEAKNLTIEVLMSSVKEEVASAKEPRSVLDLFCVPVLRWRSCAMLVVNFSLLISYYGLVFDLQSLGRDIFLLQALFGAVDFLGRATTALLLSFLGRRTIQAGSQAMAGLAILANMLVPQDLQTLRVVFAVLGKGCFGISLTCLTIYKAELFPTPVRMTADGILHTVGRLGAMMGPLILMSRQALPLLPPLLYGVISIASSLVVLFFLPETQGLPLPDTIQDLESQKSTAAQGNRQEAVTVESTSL
Protocol: Schneider 2 (S2) cells are a commonly used Drosophila melanogaster cell lines from a primary culture of late stage (20-24 hours old) embryos from a macrophage-like lineage. S2 cells are used to express heterologous proteins, to produce proteins on a large scale, and to easily and transiently transfect with several plasmids at once to study protein interactions.
[^14C]-Metformin (1 mM) was provided as a solid and was prepared in Hank's balanced salt solution (HBSS).

[1] = cited from earlier work

For `NS(=O)(=O)c1cc(Cl)c(Cl)c(S(N)(=O)=O)c1` [Dichlorphenamide, 4,5-dichloro-1,3-benzenedisulfonamide], the IC50 (BCRP) was over 1000 µM, the “Recovery (%) A:B” value (BCRP; dog, MDCK, 1000 μM) was 84.7% and the “Recovery (%) B:A” value (BCRP; dog, MDCK, 1000 μM) was 77.0%. The “% control” value (BCRP; human, 3 μM) was 124%, the “% control” value (BCRP; human, 10 μM) was 91.4% and the “% control” value (BCRP; human, 30 μM) was 83.3%. For the same compound, the “% control” value (BCRP; human, 100 μM) was 91.2%, the “% control” value (BCRP; human, 300 μM) was 91.9% and the “% control” value (BCRP; human, 1000 μM) was 60.0%. The “Recovery (%) A:B” value (BCRP; human, 1000 μM) was 93.0%, the “Recovery (%) B:A” value (BCRP; human, 1000 μM) was 83.7% and the “Uptake, OCT1 (Average ± SD)” value (OCT1; inhibitor 1 μm) was 121 ± 11 pmol/mg protein. The “Uptake, OCT1 (Average ± SD)” value (OCT1; inhibitor 3 μm) was 125 ± 5 pmol/mg protein, the “Uptake, OCT1 (Average ± SD)” value (OCT1; inhibitor 10 μm) was 111 ± 4 pmol/mg protein and the “Uptake, OCT1 (Average ± SD)” value (OCT1; inhibitor 30 μm) was 122 ± 14 pmol/mg protein. For the same compound, the “Uptake, OCT1 (Average ± SD)” value (OCT1; inhibitor 100 μm) was 128 ± 6 pmol/mg protein, the “Uptake, OCT1 (Average ± SD)” value (OCT1; inhibitor 300 μm) was 130 ± 10 pmol/mg protein and the “Uptake, OCT1 (Average ± SD)” value (OCT1; inhibitor 1000 μm) was 77.9 ± 3.0 pmol/mg protein. For the same compound, the “% control” value (OCT1; inhibitor 1 μm) was 98.6%, the “Background corrected uptake rate” value (OCT1; inhibitor 1 μm) was 7.76 pmol/mg/min and the “% control” value (OCT1; inhibitor 3 μm) was 102%. For the same compound, the “Background corrected uptake rate” value (OCT1; inhibitor 3 μm) was 8.07 pmol/mg/min, the “% control” value (OCT1; inhibitor 10 μm) was 90.6% and the “Background corrected uptake rate” value (OCT1; inhibitor 10 μm) was 7.13 pmol/mg/min. For the same compound, the “% control” value (OCT1; inhibitor 30 μm) was 99.7%, the “Background corrected uptake rate” value (OCT1; inhibitor 30 μm) was 7.85 pmol/mg/min and the “% control” value (OCT1; inhibitor 100 μm) was 105%. The “Background corrected uptake rate” value (OCT1; inhibitor 100 μm) was 8.26 pmol/mg/min, the “% control” value (OCT1; inhibitor 300 μm) was 107% and the “Background corrected uptake rate” value (OCT1; inhibitor 300 μm) was 8.40 pmol/mg/min. For the same compound, the “% control” value (OCT1; inhibitor 1000 μm) was 63.5%, the “Background corrected uptake rate” value (OCT1; inhibitor 1000 μm) was 5.00 pmol/mg/min and the “Uptake, Control (Average ± SD)” value (OCT1; inhibitor 1 μm) was 4.28 ± 1.48 pmol/mg protein. For the same compound, the “Uptake, Control (Average ± SD)” value (OCT1; inhibitor 3 μm) was 4.44 ± 1.97 pmol/mg protein, the “Uptake, Control (Average ± SD)” value (OCT1; inhibitor 10 μm) was 4.28 ± 0.92 pmol/mg protein and the “Uptake, Control (Average ± SD)” value (OCT1; inhibitor 30 μm) was 3.88 ± 0.48 pmol/mg protein. For the same compound, the “Uptake, Control (Average ± SD)” value (OCT1; inhibitor 100 μm) was 4.12 ± 0.73 pmol/mg protein, the “Uptake, Control (Average ± SD)” value (OCT1; inhibitor 300 μm) was 3.88 ± 1.11 pmol/mg protein and the “Uptake, Control (Average ± SD)” value (OCT1; inhibitor 1000 μm) was 2.99 ± 1.46 pmol/mg protein. The IC50 (OCT1; human, pH 7.4) was over 1000 µM, the IC50 (OAT4) was over 1000 µM and the “solubility in dilute solutions of sodium carbonate and sodium hydroxide” value ([1]; dilute solutions of sodium carbonate and sodium hydroxide) was “soluble”. The “stability of dilute alkaline solutions” value ([1]; room temperature) was “stable” and the solubility in water ([1]; water) was “very slightly soluble”.
